Data from patent US6664039B1, “Methods and compositions for modulating neurodegeneration” (California Institute of Technology, priority 1998, dated 2003).
“Also recorded” adds a separate entry of the source.

Assays:
[1] = test system: bubblegum mutant flies; assay: Brain (lamina) degeneration in bubblegum mutant flies by light and electron microscopy; type: in vivo, Drosophila; conditions: for degeneration: male mutant flies raised in oil-containing medium from first instar larvae, 15 day-old adults
Protocol: Tissue preparation for microscopy. Fly heads were prepared by fixation in 1% paraformaldehyde+1% glutaraldehyde, postfixation in 1% osmium tetroxide, dehydration in an ethanol series, and embedding in Epon 812. For light microscopy, […] were stained with 1% toludine blue 1% Borax. For electron microscopy, ultrathin sections (80 nm) were examined with a Philips 201 electron microscope at 60 kV.
(§1) To determine whether similar dietary treatment can reduce the level of C26 and/or prevent the pathology seen in bubblegum, 2.5% of GTO oil was added to the normal corn meal-yeast-agar medium. […] However, knowing that oil treatment in ALD was not able to prevent the progression of the disease once patients had shown neurological symptoms, we decided to treat mutant flies with the oil at pre-adult stages. First instar larvae were raised in the oil-containing medium until eclosion and the adult flies were then transferred into fresh medium, still containing the oil, changed every 3 days.

[2] = test system: VLCFAs; assay: Assay of very long chain fatty acids by gas chromatography in bubblegum flies; type: in vivo, Drosophila; conditions: male mutant flies treated from larval stage, 15 days old, compared with parental strain
Protocol: Assay of very long chain fatty acids by gas chromatography. To determine whether bubblegum has an accumulation of VLCFAs, fatty acid analysis by gas chromatography was performed on 15 day old flies, comparing homozygous mutant flies with those of the parent strain from which bubblegum was derived.
Extracts of whole male or female flies were used for purification and methylation of fatty acids. Gas chromatography was performed with a HP-5MS column (30 m×0.25 mm, 0.25-μm film thickness) and mass spectrometry was used to analyze the fatty acid methyl esters. Identification and measurement of fatty acid concentrations were based on an oil reference standard (NHI-F) from Sigma Co. and the C15 added as an internal standard.
as §1

[3] = test system: bubblegum mutant flies; assay: Lifespan of bubblegum mutant flies; type: in vivo, Drosophila; conditions: male mutant flies treated with oil from larval stage
Protocol: Mutagenesis and screen. Drosophilia lines carrying P(lacZ, w+) were screened for mutations causing reduced lifespan at 29° C.
as §1

[4] = test system: bubblegum mutant flies; assay: Countercurrent phototaxis test; type: in vivo, Drosophila; conditions: 5 day old bubblegum raised with the oil from the larval stage
From the text: Phototactic analysis. In ALD, visual loss is on of the clinical symptoms, and anatomical analysis has shown abnormalities of the optic nerve and degeneration of ganglion cell layer. Flies transformed with P-elements expressing eye pigment, as is the case for bubblegum, are phototactic. A countercurrent phototaxis test was used to examine the visual behavior of bubblegum. […] Therefore, the oil treatment can prevent the biochemical, structural, and physiological defects caused by the mutation.
Flies were placed in a countercurrent distribution apparatus and responses to light were analyzed. Each numbered tube represents the number of positive responses in a total of 5 trials. In control tests for the from-light response, neither group of flies moved away from light.

[5] = test system: C26; conditions: ALD, feeding GTO oil, within 4 months; cited from earlier work

## CCCCCCCC/C=C\CCCCCCCC(=O)OCC(COC(=O)CCCCCCC/C=C\CCCCCCCC)OC(=O)CCCCCCC/C=C\CCCCCCCC [GTO, glyceryl trioleate]
[1]; adult mutant flies transferred to medium with 2.5% GTO oil, fed 15 days following emergence
  onset of brain degeneration: reduced only slightly
[1]; homozygous females fed the oil
  age-dependent degeneration phenotype: similarly prevented
[1]
  degeneration: largely prevented; also recorded: prevented the onset of degeneration
[1]; listed as GTO oil
  degeneration: largely been prevented
[2]
  levels of VLCFAs: becoming normal
[2]; listed as GTO oil
  levels of VLCFAs: reduced to normal
[3]
  lifespan: recovered
[4]
  phototactic response (response to the light): greatly enhanced response to the light
[4]; listed as oil
  phototactic response (response to the light): showed a phototactic response
[5]
  reduction of the level of C26 in plasm: about 50%
